This note sets out measurements from US20250144067A1, “PERSONALIZED STARVATION THERAPY FOR CANCER” (Faeth Therapeutics, Inc., priority 2021, published 2025).

Counter-ions that a name gives are not always drawn.

The test system of experiment [1] is NCI-H292 lung cancer cells. Kind of experiment: FDA drug screening, complete media vs cholesterol-free media with simvastatin (TABLE 2). It counts as cell-based, human. Conditions: for Cholesterol-free media + simvastatin (0.04 μM) / Complete Media: NCI-H292 cells.
In experiment [2] the test system is NCI-H292 lung cancer cells. Nature of the experiment: FDA drug screening, complete media vs cholesterol-free media without statin (TABLE 1). It counts as cell-based, human.
[3] abbreviates: FDA drug library screen, cholesterol-free media with simvastatin 0.04 μM.
[4] abbreviates: FDA drug library screen, complete media.
Setting [5] is: complete media minus cholesterol-free media + simvastatin, >0 enhanced anti-cancer activity, about 0 neutral, <0 antagonist.
The mark [6] stands for this setting: Complete minus Cholesterol-free, greater than 0 enhanced anti-cancer activity, about 0 neutral, below 0 antagonists.
The mark [7] stands for this setting: NCI-H292 cells in cholesterol-free media without statin.
Where [8] appears, read: NCI-H292 cells in complete media.
Setting [9] is: Complete minus Cholesterol-free, greater than 0 enhanced anti-cancer activity, about 0 neutral, below 0 antagonist.
Setting [10] is: NCI-H292 cells, FDA drug library screen, cholesterol-free media without statin.
The mark [11] stands for this setting: NCI-H292 cells, FDA drug library screen, complete media.
The mark [12] stands for this setting: complete media vs cholesterol-free media + simvastatin (0.04 μM), >0 enhanced anti-cancer activity, about 0 neutral, <0 antagonist.
Where [13] appears, read: Complete minus Cholesterol-free, >0 enhanced anti-cancer activity, about 0 neutral, <0 antagonist.
The mark [14] stands for this setting: NCI-H292 cells, cholesterol-free media without statin.
Where [15] appears, read: FDA library drug in cholesterol-free media with simvastatin 0.04 μM.
Where [16] appears, read: FDA library drug in complete media.
Where [17] appears, read: NCI-H292 cells, cholesterol-free media without statin, FDA drug library screen.
The mark [18] stands for this setting: NCI-H292 cells, complete media, FDA drug library screen.
[19] abbreviates: drug in cholesterol-free media with simvastatin 0.04 μM.
The mark [20] stands for this setting: cholesterol-free media with simvastatin 0.04 μM, FDA drug library screen (TABLE 2).
The mark [21] stands for this setting: complete media, FDA drug library screen (TABLE 2).
[22] abbreviates: Complete minus Cholesterol-free, […].
[23] abbreviates: complete vs cholesterol-free media, greater than 0 enhanced anti-cancer activity, about 0 neutral, below 0 antagonists.
Setting [24] is: complete media minus cholesterol-free media + simvastatin, […].
The mark [25] stands for this setting: complete vs cholesterol-free media, >0 enhanced anti-cancer activity, about 0 neutral, <0 antagonist.

Consider `CCN(c1cc(-c2ccc(CN3CCOCC3)cc2)cc(C(=O)NCc2c(C)cc(C)[nH]c2=O)c1C)C1CCOCC1` [Tazemetostat], for which the “Cholesterol-free media + simvastatin (0.04 μM)” value in experiment [1] (setting [3]) is 0.9335. Besides, the “Complete Media” value in experiment [1] (setting [4]) was found to be 1.59. Also, the Difference in experiment [1] (setting [5]) is on record as 0.66; in experiment [2] (setting [6]), −0.49. For the same compound, the Cholesterol-free in experiment [2] (setting [7]) is recorded as 1.722. Further, in experiment [2] (setting [8]), the Complete came to 1.228.

In the case of `COc1ccc2c(c1)c(CC(=O)O)c(C)n2C(=O)c1ccc(Cl)cc1` [Indomethacin], the “Cholesterol-free media + simvastatin (0.04 μM)” value in experiment [1] (setting [3]) is given as 1.269. In experiment [1] (setting [4]), the “Complete Media” value is reported as 1.474. The Difference in experiment [1] (setting [5]) is recorded as 0.20; in experiment [2] (setting [6]), −0.82. In experiment [2] (setting [7]), this compound had a Cholesterol-free of 1.574. Also, the Complete in experiment [2] (setting [8]) is reported as 0.7546.

On to `O=C(Nc1cccc2c(=O)cc(-c3nnn[nH]3)oc12)c1ccc(OCCCCc2ccccc2)cc1` [Pranlukast], for which, in experiment [1] (setting [3]), the “Cholesterol-free media + simvastatin (0.04 μM)” value amounted to 0.7995. In experiment [1] (setting [4]), the “Complete Media” value amounted to 1.23. The Difference is 0.43 in experiment [1] (setting [5]) and −0.10 in experiment [2] (setting [9]). Further, in experiment [2] (setting [10]), the Cholesterol-free is recorded as 0.9973. For the same compound, the Complete in experiment [2] (setting [11]) was 0.8953.

On to `C=Cc1c(C)c2cc3nc(c(CC(=O)N[C@@H](CC(=O)O)C(=O)O)c4[nH]c(cc5nc(cc1[nH]2)C(C)=C5CC)c(C)c4C(=O)O)[C@@H](CCC(=O)O)[C@@H]3C` [Talaporfin (sodium)], for which the “Cholesterol-free media + simvastatin (0.04 μM)” value in experiment [1] (setting [3]) turned out to be 1.087. Further, the “Complete Media” value in experiment [1] (setting [4]) turned out to be 0.9459. Also, the Difference in experiment [1] (setting [12]) is listed as −0.14; in experiment [2] (setting [13]), −0.29. Moreover, the Cholesterol-free in experiment [2] (setting [14]) amounted to 1.22. In experiment [2] (NCI-H292 cells, complete media), this compound had a Complete of 0.9319.

On to `CC(/C=C1\SC(=S)N(CC(=O)O)C1=O)=C\c1ccccc1` [Epalrestat], for which the “Cholesterol-free media + simvastatin (0.04 μM)” value in experiment [1] (setting [3]) stood at 0.9966. Also, the “Complete Media” value in experiment [1] (setting [4]) is 0.8579. The Difference in experiment [1] (setting [12]) is reported as −0.14; in experiment [2] (setting [13]), −0.29. In experiment [2] (setting [14]), the Cholesterol-free was 1.235. Besides, the Complete in experiment [2] (NCI-H292 cells, complete media) is 0.9425.

Regarding `CCOC(=O)C1=C(C)NC(C)=C(C(=O)OCC)C1c1ccccc1/C=C/C(=O)OC(C)(C)C` [Lacidipine], the “Cholesterol-free media + simvastatin (0.04 μM)” value in experiment [1] (setting [15]) worked out at 1.8. Further, the “Complete Media” value in experiment [1] (setting [16]) is recorded as 0.96. The Difference in experiment [1] (setting [12]) was −0.84; in experiment [2] (setting [13]) it was −0.07. The Cholesterol-free in experiment [2] (setting [17]) turned out to be 1.081. In experiment [2] (setting [18]), this compound showed a Complete of 1.013.

For the compound `CCN(CC)C(=O)c1cccc(C)c1` [Diethyltoluamide], in experiment [1] (setting [19]), the “Cholesterol-free media + simvastatin (0.04 μM)” value stood at 1.302. In addition, the “Complete Media” value in experiment [1] (drug in complete media) was 1.098. Moreover, the Difference in experiment [1] (setting [12]) is on record as −0.20; in experiment [2] (setting [9]), −0.08. For the same compound, the Cholesterol-free in experiment [2] (setting [10]) is reported as 1.096. This compound came in with a Complete in experiment [2] (setting [11]) of 1.015.

Regarding `CC(C)(C(=O)O)c1ccc(C(O)CCCN2CCC(C(O)(c3ccccc3)c3ccccc3)CC2)cc1` (stereo not shown) [Fexofenadine (hydrochloride)], in experiment [1] (setting [15]), the “Cholesterol-free media + simvastatin (0.04 μM)” value is 1.402. The “Complete Media” value in experiment [1] (setting [16]) is 1.104. In addition, the Difference in experiment [1] (setting [12]) is recorded as −0.30; in experiment [2] (setting [13]), −0.02. The Cholesterol-free in experiment [2] (setting [17]) was determined as 1.052. The Complete in experiment [2] (setting [18]) is on record as 1.034.

With `Nc1nc(F)nc2c1ncn2[C@@H]1O[C@H](CO)[C@@H](O)[C@@H]1O` [Fludarabine], the “Cholesterol-free media + simvastatin (0.04 μM)” value in experiment [1] (setting [20]) is on record as 1.255. Moreover, the “Complete Media” value in experiment [1] (setting [21]) is 1.187. For the same compound, the Difference is on record as −0.07 in experiment [1] (complete media minus cholesterol-free media + simvastatin (0.04 μM), […]) and −0.15 in experiment [2] (setting [22]). In experiment [2] (setting [10]), this compound came in with a Cholesterol-free of 1.174. In experiment [2] (setting [11]), the Complete is recorded as 1.022.

For `CC[C@@]1(O)C(=O)OCc2c1cc1n(c2=O)Cc2cc3cc(O)ccc3nc2-1` [(S)-10-Hydroxycamptothecin], the “Cholesterol-free media + simvastatin (0.04 μM)” value in experiment [1] (setting [3]) was found to be 0.2337. Besides, the “Complete Media” value in experiment [1] (setting [4]) amounted to 0.138. For the same compound, the Difference is given as −0.10 in experiment [1] (complete media vs cholesterol-free media + simvastatin (0.04 μM), […]) and 0.01 in experiment [2] (setting [22]). Besides, the Cholesterol-free in experiment [2] (setting [17]) worked out at 0.01962. Moreover, the Complete in experiment [2] (setting [18]) amounted to 0.02742.

With `N[C@H](CS)C(=O)O` [D-Cysteine], the “Cholesterol-free media + simvastatin (0.04 μM)” value in experiment [1] (setting [19]) was 1.145. In addition, the “Complete Media” value in experiment [1] (drug in complete media) amounted to 0.9078. Moreover, the Difference in experiment [1] (setting [12]) is recorded as −0.24; in experiment [2] (setting [23]) it was −0.37. The compound also had a Cholesterol-free in experiment [2] (setting [14]) of 1.1. Also, in experiment [2] (NCI-H292 cells, complete media), the Complete came to 0.7316.

As to `N[C@@H]1c2cccnc2[C@H](OC(=O)N2CCC(n3c(=O)[nH]c4ncccc43)CC2)CC[C@H]1c1cccc(F)c1F` [Rimegepant], in experiment [1] (setting [19]), the “Cholesterol-free media + simvastatin (0.04 μM)” value worked out at 1.311. For the same compound, the “Complete Media” value in experiment [1] (drug in complete media) stood at 1.114. Also, the values for the Difference in experiment [1] (setting [12]) and in experiment [2] (setting [23]) were −0.20 and −0.47, respectively. The Cholesterol-free in experiment [2] (setting [14]) turned out to be 1.457. Moreover, in experiment [2] (NCI-H292 cells, complete media), the Complete was 0.9844.

As for `CC(=O)N[C@@H](CS)C(=O)O` [Acetylcysteine], the “Cholesterol-free media + simvastatin (0.04 μM)” value in experiment [1] (setting [19]) is recorded as 1.145. Besides, the “Complete Media” value in experiment [1] (drug in complete media) was 0.9059. Besides, the Difference in experiment [1] (setting [12]) was −0.24; in experiment [2] (setting [6]), −0.64. The Cholesterol-free in experiment [2] (setting [7]) was determined as 1.369. In addition, the Complete in experiment [2] (setting [8]) amounted to 0.7324.

Medroxyprogesterone: in experiment [1] (setting [3]), the “Cholesterol-free media + simvastatin (0.04 μM)” value was 0.8858. Moreover, the “Complete Media” value in experiment [1] (setting [4]) amounted to 1.173. Moreover, the Difference is on record as 0.29 in experiment [1] (setting [24]) and −0.03 in experiment [2] (setting [22]). In experiment [2] (setting [18]), this compound returned a Complete of 0.9783.

Regarding `Cc1ccccc1OCC(O)CO` (stereo not shown) [Mephenesin], in experiment [1] (setting [3]), the “Cholesterol-free media + simvastatin (0.04 μM)” value is on record as 1.225. For the same compound, the “Complete Media” value in experiment [1] (setting [4]) stood at 1.535. Further, the Difference is listed as 0.31 in experiment [1] (setting [5]) and 0.60 in experiment [2] (setting [25]). For the same compound, the Cholesterol-free in experiment [2] (setting [17]) was 0.8638. The same compound registered a Complete in experiment [2] (setting [18]) of 1.459.

As for `CN1CCN(CC(=O)N2c3ccccc3C(=O)Nc3cccnc32)CC1` [Pirenzepine (dihydrochloride)], the “Cholesterol-free media + simvastatin (0.04 μM)” value in experiment [1] (setting [20]) stood at 1.293. In addition, the “Complete Media” value in experiment [1] (setting [21]) came to 1.265. The Difference in experiment [1] (complete media minus cholesterol-free media + simvastatin (0.04 μM), >0 enhanced anti-cancer activity, about 0 neutral, <0 antagonist) is recorded as −0.03; in experiment [2] (setting [25]), 0.14. Moreover, the Cholesterol-free in experiment [2] (setting [17]) came to 1.465. In experiment [2] (setting [18]), this compound came in with a Complete of 1.606.

On to `O=[N+]([O-])c1cncn1CCN1CCOCC1` [Nimorazole], for which, in experiment [1] (setting [19]), the “Cholesterol-free media + simvastatin (0.04 μM)” value is 1.022. Also, the “Complete Media” value in experiment [1] (drug in complete media) was determined as 0.8004. In addition, the Difference is −0.22 in experiment [1] (setting [12]) and 0.41 in experiment [2] (setting [25]). Besides, the Cholesterol-free in experiment [2] (setting [17]) was found to be 0.576. The compound also registered a Complete in experiment [2] (setting [18]) of 0.9886.

On to Carbasalate calcium, for which, in experiment [1] (complete media, […]), the “Complete Media” value is given as 1.129. Also, the Difference is reported as 0.02 in experiment [1] (setting [24]) and −0.21 in experiment [2] (setting [22]). This compound also yielded a Cholesterol-free in experiment [2] (setting [14]) of 1.087. In experiment [2] (NCI-H292 cells, complete media), this compound registered a Complete of 0.8754.

As to `Cc1cc(C)c(NC(=O)CN(CC(=O)O)CC(=O)O)c(C)c1Br` [Mebrofenin], the “Cholesterol-free media + simvastatin (0.04 μM)” value in experiment [1] (setting [15]) worked out at 1.2. The “Complete Media” value in experiment [1] (setting [16]) came to 0.8726. The Difference is on record as −0.33 in experiment [1] (setting [12]) and −0.13 in experiment [2] (setting [9]). In addition, in experiment [2] (setting [10]), the Cholesterol-free is 1.088. The same compound returned a Complete in experiment [2] (setting [11]) of 0.9614.
